Experimental data taken from US20250319046A1, “PHENYLALANINE-BASED LAT1 INHIBITORS AND USES THEREOF” (MAXYMUNE THERAPEUTICS, INC., priority 2024, published 2025).
Read-outs that look alike come from different tables or passages of the source.

Legend:
LAT1 = LAT1 (Homo sapiens (Human), UniProt Q01650); experiment: LAT1 uptake inhibition assay: [3H]-gabapentin competition uptake in LN229 cells; format: cell-based; details: [3H]-gabapentin uptake
Procedure: LAT1 Uptake Inhibition Assay
The ability of compounds to interact with LAT1 was measured using a radiolabeled competition uptake assay with [^3H]-Gabapentin ([^3H]-GP) (Perkin Elmer) in 96-well plates with LN229 cells (ATCC®). Ten (10)×10^3 (10,000) cells/well were plated in white, clear bottom plates and were allowed to grow for three (3) days. On the fourth day, the cells were washed and then incubated with 50,000 counts per minute (cpm) of [^3H]-GP in phosphate buffered saline (PBS) (VWR International) with increasing concentrations of test compounds in at least triplicate for 15 min. At end of the assay time, the incubation solution was removed, and plates were washed three times (3×) with 100 μL of ice-cold PBS buffer. One-hundred fifty (150) […] of scintillation fluid (VWR International) was added to each well, and the radioactivity retained within the cells was measured on a 96-well scintillation counter. Background uptake ([^3H]-GP uptake in the presence of 10 mM non-radiolabeled gabapentin (GP)) (MedKoo) was subtracted and data were normalized to the DMSO control ([^3H]-GP uptake in the absence of any competitor). Data were fitted to the Michaelis-Menten equation using GraphPad Prism (Version 8.2.0).

LN229 cells = experiment: Amino acid starvation assay: antiproliferation assay with LN229 cells (CellTiter-Glo); format: cell-based; details: Homo sapiens, LN-229, 144 h, F12K medium, six days
Procedure: Amino Acid Starvation Assay
The ability of compounds to inhibit amino acid uptake interact with LAT1 was measured using an antiproliferation assay with LN229 cells (ATCC®). LN229 cells were cultured in DMEM medium (VWR International). Two (2)×10^3 (2,000) cells/well were plated in clear bottom 96-well plates (CellBIND®, Corning 3340) and were allowed to attach overnight. The next day, cells were washed once with PBS buffer (VWR International). F12K medium ([…]) (VWR International) with increasing concentrations of test compounds in at least triplicate was added. Cells were incubated for six (6) days at 37° C. and 5% CO2. At end of the assay, 140 μL of supernatant medium were removed from each well and 60 μL of CellTiter-Glo® (Promega) were added. Cell lysis was induced by placing the plates for three (3) minutes on an orbital shaker. Plates were incubated for 10 min at 25° C. to stabilize the luminesce signal. Luminescence was recorded using an EnSpire® Multimode Plate Reader (Perkin Elmer). Background (luminescence from wells incubated in the presence of 100 µM of commercial LAT1 inhibitor JPH203 (MedKoo) was subtracted, and data were normalized to the DMSO control (proliferation in the absence of any competitor). Data were fitted to the Michaelis-Menten equation using GraphPad Prism (Version 8.2.0).

[1] = 15 min incubation in PBS, read-out: IC50, the concentration of test compound at which the [3H]-GP uptake was inhibited by 50%
[2] = Table 1, read-out: LAT1 inhibition IC50 (nM ± SE)
[3] = Table 1, read-out: Anti-proliferation LC50 (μM ± SE)
[4] = read-out: LC50, the concentration of test compound at which the proliferation was inhibited by 50%

Sequence of LAT1 (Q01650 whole entry): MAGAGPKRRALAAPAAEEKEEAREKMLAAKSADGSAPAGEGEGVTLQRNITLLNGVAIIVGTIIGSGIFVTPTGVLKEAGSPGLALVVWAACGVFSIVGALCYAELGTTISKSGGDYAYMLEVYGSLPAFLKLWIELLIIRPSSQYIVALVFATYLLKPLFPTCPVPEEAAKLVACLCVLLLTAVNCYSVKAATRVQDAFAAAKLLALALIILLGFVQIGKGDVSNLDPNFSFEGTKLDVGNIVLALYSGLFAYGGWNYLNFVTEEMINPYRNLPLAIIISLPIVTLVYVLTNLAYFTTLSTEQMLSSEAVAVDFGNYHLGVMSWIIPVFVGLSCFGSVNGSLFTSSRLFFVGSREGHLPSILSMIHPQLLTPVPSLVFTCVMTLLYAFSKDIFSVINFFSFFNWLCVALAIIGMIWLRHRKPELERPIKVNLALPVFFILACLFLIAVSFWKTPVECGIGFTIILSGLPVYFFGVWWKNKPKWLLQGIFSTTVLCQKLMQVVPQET
Sequence of LAT1 (P08195 whole entry partner): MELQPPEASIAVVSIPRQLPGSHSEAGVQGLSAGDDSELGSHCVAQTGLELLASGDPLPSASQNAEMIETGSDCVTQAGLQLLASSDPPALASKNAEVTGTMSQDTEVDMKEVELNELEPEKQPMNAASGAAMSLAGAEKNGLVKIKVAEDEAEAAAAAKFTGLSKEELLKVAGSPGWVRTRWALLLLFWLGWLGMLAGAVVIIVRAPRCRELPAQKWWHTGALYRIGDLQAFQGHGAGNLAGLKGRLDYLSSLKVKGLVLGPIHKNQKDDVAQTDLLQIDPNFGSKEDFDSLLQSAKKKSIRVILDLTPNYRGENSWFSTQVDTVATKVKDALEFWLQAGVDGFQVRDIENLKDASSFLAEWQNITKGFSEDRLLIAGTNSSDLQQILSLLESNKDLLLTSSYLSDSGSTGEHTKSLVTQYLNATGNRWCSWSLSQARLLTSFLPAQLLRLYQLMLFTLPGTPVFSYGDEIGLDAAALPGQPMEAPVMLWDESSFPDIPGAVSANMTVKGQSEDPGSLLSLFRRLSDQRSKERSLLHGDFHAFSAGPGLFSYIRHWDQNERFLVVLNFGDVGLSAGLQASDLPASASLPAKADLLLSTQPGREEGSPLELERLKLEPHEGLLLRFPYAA

Row | Compound | IC50 (LAT1; [1]) [nM] | other results
1 | Nc1cc(COc2c(Cl)cc(C[C@H](N)C(=O)O)cc2Cl)c2oc(-c3ccccc3)nc2c1 [JPH203, (S)-2-Amino-3-(4-((5-amino-2-phenylbenzo[d]oxazol-7-yl)methoxy)-3,5-dichlorophenyl)propanoic Acid, reference compound] | – | IC50 (LAT1; read-out: IC50 in the LAT1 uptake inhibition assay): 19 ± 6 nM; CC50 (LN229 cells; [4]): 20 ± 10 µM
2 | Cc1ccc(S(=O)(=O)Nc2ccc(Cl)cc2)cc1C[C@H](N)C(=O)OC(C)(C)C [Compound 82, tert-Butyl (S)-2-amino-3-(5-(N-(4-chlorophenyl)sulfamoyl)-2-methylphenyl)propanoate] | 20 to 100 | CC50 (LN229 cells; [4]): ≥ 100 µM
3 | Cc1ccc(S(=O)(=O)N2CCC[C@@H]2C(=O)O)cc1C[C@H](N)C(=O)O [Compound 45, ((3-((S)-2-Amino-2-carboxyethyl)-4-methylphenyl)sulfonyl)-D-proline] | ≥ 10000 | –
4 | Cc1ccc(NS(=O)(=O)c2c(Cl)cc(C(F)(F)F)cc2Cl)cc1C[C@H](N)C(=O)O [Compound 36, (S)-2-Amino-3-(5-((2,6-dichloro-4-(trifluoromethyl)phenyl)sulfonamido)-2-methylphenyl)propanoic Acid] | 1000 to 10000 | –
5 | Cc1ccc(NS(=O)(=O)C2CCOCC2)cc1C[C@H](N)C(=O)O [Compound 12, (S)-2-Amino-3-(2-methyl-5-((tetrahydro-2H-pyran)-4-sulfonamido)phenyl)propanoic Acid] | 1000 to 10000 | –
6 | Cc1ccc([S+]([O-])Cc2ccccc2)cc1C[C@H](N)C(=O)O (stereo partly drawn) [Compound 64, (2S)-2-Amino-3-(5-(benzylsulfinyl)-2-methylphenyl)propanoic Acid] | 1000 to 10000 | –
7 | Cc1ccc(NS(=O)(=O)C2CCCCC2)cc1C[C@H](N)C(=O)O [Compound 26, (S)-2-Amino-3-(5-(cyclohexanesulfonamido)-2-methylphenyl)propanoic Acid] | 100 to 1000 | –
8 | Cc1cc(S(=O)(=O)Nc2ccc(Cl)cc2)ccc1C[C@H](N)C(=O)O [Compound 85, (S)-2-Amino-3-(4-(N-(4-chlorophenyl)sulfamoyl)-2-methylphenyl)propanoic Acid] | 100 to 1000 | –
9 | CS(=O)(=O)Nc1cc(C[C@H](N)C(=O)O)cc(NS(C)(=O)=O)c1 [Compound 61, (S)-2-Amino-3-(3,5-di(methylsulfonamido)phenyl)propanoic Acid] | ≥ 10000 | –
10 | Cc1ccc(S(=O)(=O)NCC(C)C)cc1C[C@H](N)C(=O)O [Compound 46, (S)-2-Amino-3-(5-(N-isobutylsulfamoyl)-2-methylphenyl)propanoic Acid] | 100 to 1000 | –
11 | Cc1ccc(NS(=O)(=O)c2ccc(Cl)c3nonc23)cc1C[C@H](N)C(=O)O [Compound 24, (S)-2-Amino-3-(5-((7-chlorobenzo[c][1,2,5]oxadiazole)-4-sulfonamido)-2-methylphenyl)propanoic Acid] | 1000 to 10000 | –
12 | Cc1ccc(S(=O)(=O)Nc2ccc(S(=O)(=O)Nc3ccc(C)c(C[C@H](N)C(=O)O)c3)cc2)cc1 [Compound 33, (S)-2-Amino-3-(2-methyl-5-((4-((4-methylphenyl)sulfonamido)phenyl)sulfonamido)phenyl)propanoic Acid] | 100 to 1000 | –
13 | Cc1ccc(NS(=O)(=O)C2CC2)cc1C[C@H](N)C(=O)O [Compound 14, (S)-2-Amino-3-(5-(cyclopropanesulfonamido)-2-methylphenyl)propanoic Acid] | 1000 to 10000 | –
14 | Cc1ccc(NS(=O)(=O)C(C)C)cc1C[C@H](N)C(=O)O [Compound 20, (S)-2-Amino-3-(2-methyl-5-((1-methylethyl)sulfonamido)phenyl)propanoic Acid] | 1000 to 10000 | –
15 | Cc1ccc(S(=O)(=O)Nc2ccc(Cl)c(Cl)c2)cc1C[C@H](N)C(=O)O [Compound 83, (S)-2-Amino-3-(5-(N-(3,4-dichlorophenyl)sulfamoyl)-2-methylphenyl)propanoic Acid] | 100 to 1000 | –
16 | Cc1ccc(NS(=O)(=O)c2cn(C)c(C)n2)cc1C[C@H](N)C(=O)O [Compound 18, (S)-2-Amino-3-(5-((1,2-dimethyl-1H-imidazole)-4-sulfonamido)-2-methylphenyl)propanoic Acid] | ≥ 10000 | –
17 | CS(=O)(=O)Nc1cccc(C[C@H](N)C(=O)O)c1 [Compound 68, (S)-2-Amino-3-(3-(methylsulfonamido)phenyl)propanoic Acid] | ≥ 10000 | –
18 | N[C@@H](Cc1ccccc1S(=O)(=O)Nc1ccc(Cl)cc1)C(=O)O [Compound 81, (S)-2-Amino-3-(2-(N-(4-chlorophenyl)sulfamoyl)phenyl)propanoic Acid] | 1000 to 10000 | –

The next lines start with results.

Row | IC50 (LAT1; [1]) [nM] | Compound | other results
19 | ≤ 20 | Cc1ccc(S(=O)(=O)Nc2cccc(Br)c2)cc1C[C@H](N)C(=O)O [Compound 76, (S)-2-Amino-3-(5-(N-(3-bromophenyl)sulfamoyl)-2-methylphenyl)propanoic Acid] | IC50 (LAT1; [2]): 9 ± 3 nM; CC50 (LN229 cells; [3]): 11 ± 1 µM; CC50 (LN229 cells; [4]): < 30 µM
20 | 20 to 100 | Cc1ccc(S(=O)(=O)Nc2cccc3c(N(C)C)cccc23)cc1C[C@H](N)C(=O)O [Compound 49, (S)-2-Amino-3-(5-(N-(5-(dimethylamino)naphthalen-1-yl)sulfamoyl)-2-methylphenyl)propanoic Acid] | IC50 (LAT1; [2]): 80 ± 20 nM; CC50 (LN229 cells; [3]): 100 ± 10 µM; CC50 (LN229 cells; [4]): ≥ 100 µM
21 | 100 to 1000 | Cc1ccc(N(C)S(=O)(=O)c2cccc3c(N(C)C)cccc23)cc1C[C@H](N)C(=O)O [Compound 16, (S)-2-Amino-3-(5-((5-(dimethylamino)-N-methylnaphthalene)-1-sulfonamido)-2-methylphenyl)propanoic Acid] | –
22 | 100 to 1000 | CN(C)c1cccc2c(S(=O)(=O)Nc3cccc(C[C@H](N)C(=O)O)c3)cccc12 [Compound 3, (S)-2-Amino-3-(3-((5-(dimethylamino)naphthalene)-1-sulfonamido)phenyl)propanoic Acid] | –
23 | 100 to 1000 | Cc1ccc(NS(=O)(=O)c2cccc(N)c2)cc1C[C@H](N)C(=O)O [Compound 28, (S)-2-Amino-3-(5-((3-aminophenyl)sulfonamido)-2-methylphenyl)propanoic Acid] | –
24 | 100 to 1000 | CN(C)c1cccc2c(S(=O)(=O)Nc3ccccc3C[C@H](N)C(=O)O)cccc12 [Compound 19, (S)-2-Amino-3-(2-((5-(dimethylamino)naphthalene)-1-sulfonamido)phenyl)propanoic Acid] | –
25 | 100 to 1000 | Cc1ccc(S(=O)(=O)Nc2cccc3ncccc23)cc1C[C@H](N)C(=O)O [Compound 50, (S)-2-Amino-3-(2-methyl-5-(N-(quinolin-5-yl)sulfamoyl)phenyl)propanoic Acid] | –
26 | 100 to 1000 | Cc1ccc(S(=O)(=O)NCc2ccc(C)c(C[C@H](N)C(=O)O)c2)cc1 [Compound 66, (S)-2-Amino-3-(2-methyl-5-(((4-methylphenyl)sulfonamido)methyl)phenyl)propanoic Acid] | –
27 | 100 to 1000 | CN(C)c1cccc2c(S(=O)(=O)Nc3ccc(Cl)c(C[C@H](N)C(=O)O)c3)cccc12 [Compound 15, (S)-2-Amino-3-(2-chloro-5-((5-(dimethylamino)naphthalene)-1-sulfonamido)phenyl)propanoic Acid] | –
28 | 100 to 1000 | COc1ccc(S(=O)(=O)Nc2ccc(C)c(C[C@H](N)C(=O)O)c2)cc1 [Compound 57, (S)-2-Amino-3-(5-((4-methoxyphenyl)sulfonamido)-2-methylphenyl)propanoic Acid] | –
29 | 100 to 1000 | Cc1ccc(CNS(=O)(=O)c2ccccc2)cc1C[C@H](N)C(=O)O [Compound 69, (S)-2-Amino-3-(2-methyl-5-(phenylsulfonamidomethyl)phenyl)propanoic Acid] | –
30 | 100 to 1000 | Cc1ccc(S(=O)(=O)N(c2ccc(C)c(C[C@H](N)C(=O)O)c2)S(=O)(=O)c2ccc(C)cc2)cc1 [Compound 48, (S)-2-Amino-3-(2-methyl-5-((4-methyl-N-tosylphenyl)sulfonamido)phenyl)propanoic Acid] | –
31 | 100 to 1000 | Cc1ccc(NS(=O)(=O)c2c(Cl)cccc2Cl)cc1C[C@H](N)C(=O)O [Compound 42, (S)-2-Amino-3-(5-((2,6-dichlorophenyl)sulfonamido)-2-methylphenyl)propanoic Acid] | –
32 | 1000 to 10000 | CC(=O)Nc1ccc(S(=O)(=O)Nc2ccc(C)c(C[C@H](N)C(=O)O)c2)c2ccccc12 [Compound 13, (S)-3-(5-((4-Acetamidonaphthalene)-1-sulfonamido)-2-methylphenyl)-2-aminopropanoic Acid] | –
